Assay results from patent US7087768B2, “Fumagillol derivatives and preparing method thereof” (Equispharm Co., Ltd., priority 2001, dated 2006).
≈ marks a conversion by molar mass, not a printed value. Like-named read-outs stand apart in the source and are kept apart here.

Tested on: HUVECs (human umbilical vein endothelial cells)
Assay: Inhibitory effect of fumagillol derivative on HUVEC cell growth (colorimetry)
Format: cell-based
Settings: for IC50: Homo sapiens, HUVEC growth, cultured 2–3 days with compound, absorption at 490 nm, read-out: IC50
Procedure: Using the HUVECs (human umbilical vein endothelial), the effect of the fumagillol derivative of the present invention on cell growth was evaluated.
The HUVECs were added to M199 medium supplemented with 20% FBS (fetal bovine serum), 100 U/ml penicillin, 100 μg/ml streptomycin, 1.5 g/L sodium bicarbonate, 0.1 mg/ml endothelial cell growth supplement (Sigma) and 0.1 mg/ml heparin (Sigma), after which the cells were incubated in an incubator at 37° C. under 5% CO2. Cells were subcultured a maximum of 8 times before being discarded.
In order to evaluate inhibitory activity of the fumagillin derivative on growth of HUVECs, the inventive compound was dissolved in DMSO and its concentration was adjusted from 10 mM to 1 mM. Cells were aliquotted to 96 well plates at a density of 2×10^3 cells per well and incubated for about 12–24 hours to be properly attached to the plate. Thereafter, the medium was replaced with new medium. The cells were treated with the compound obtained from each of the above examples at various concentration ranges of from 10 μM to […], and cultured for 2–3 days, followed by removing 100 μl of the medium from each well.
Colorimetry was performed to determine the extent of cell growth. The cells on each plate was added with 20 μl of aqueous one solution and then incubated at 37° C. under 5% CO2 for 2 hours. Using a 96-well plate reader, absorption was measured at 490 nm.
As such, a conventional TNP-470 having angiogenesis inhibitory effect was used as a control.

Row | SMILES | IC50 (HUVEC) [ng/mL] | other results
1 | CO[C@@H]1C(OC(=O)CNC2CC2)CC[C@](O)(CCl)[C@H]1C1(C)OC1CC=C(C)C (stereo in doubt) [Ex. 78, 4-((cyclopropylamino)acetyl)oxy-2-(1,2-epoxy-1,5-dimethyl-4-hexenyl)-3-methoxy-1-chloromethyl-1-cyclohexanol] | 0.014 (≈ 0.0337 nM) | –
2 | CO[C@@H]1C(OC(=O)CNC2CCC2)CC[C@](O)(CCl)[C@H]1C1(C)OC1CC=C(C)C (stereo in doubt) [Ex. 79, 4-((cyclobutylamino)acetyl)oxy-2-(1,2-epoxy-1,5-dimethyl-4-hexenyl)-3-methoxy-1-chloromethyl-1-cyclohexanol] | 0.037 (≈ 0.086 nM) | –
3 | COc1ccc(NCC(=O)O[C@@H]2CC[C@]3(CO3)[C@@H]([C@@]3(C)OC3CC=C(C)C)[C@@H]2OC)cc1 (stereo partly shown) [Ex. 1, 6-O-(4-methoxyaniline)acetyl fumagillol] | 0.0071 (≈ 0.0159 nM) | inhibitory effect on HUVEC, times greater than TNP-470 (relative to TNP-470): 2000 times
4 | COc1cc(NCC(=O)O[C@@H]2CC[C@]3(CO3)[C@@H]([C@@]3(C)OC3CC=C(C)C)[C@@H]2OC)cc(OC)c1OC (stereo partly shown) [Ex. 2, 6-O-(3,4,5-trimethoxyaniline)acetyl fumagillol] | 0.15 (≈ 0.297 nM) | –
5 | COc1ccc(NCC(=O)O[C@@H]2CC[C@]3(CO3)[C@@H]([C@@]3(C)OC3CC=C(C)C)[C@@H]2OC)c(OC)c1 (stereo partly shown) [Ex. 3, 6-O-(2,4-dimethoxyaniline)acetyl fumagillol] | 0.09 (≈ 0.189 nM) | –
6 | COc1ccc(NCC(=O)O[C@@H]2CC[C@]3(CO3)[C@@H]([C@@]3(C)OC3CC=C(C)C)[C@@H]2OC)cc1OC (stereo partly shown) [Ex. 4, 6-O-(3,4-dimethoxyaniline)acetyl fumagillol] | – | IC50: 0.08 ng/mL (≈ 0.168 nM)
7 | COc1cc(NCC(=O)O[C@@H]2CC[C@]3(CO3)[C@@H]([C@@]3(C)OC3CC=C(C)C)[C@@H]2OC)c([N+](=O)[O-])cc1OC (stereo partly shown) [Ex. 5, 6-O-(3,4-dimethoxy-6-nitroaniline)acetyl fumagillol] | 142 (≈ 273 nM) | –
8 | COc1cc(C#N)c(NCC(=O)O[C@@H]2CC[C@]3(CO3)[C@@H]([C@@]3(C)OC3CC=C(C)C)[C@@H]2OC)cc1OC (stereo partly shown) [Ex. 6, 6-O-(3,4-dimethoxy-6-cyanoaniline)acetyl fumagillol] | 19 (≈ 38 nM) | –
9 | C=CCOc1ccc(NCC(=O)O[C@@H]2CC[C@]3(CO3)[C@@H]([C@@]3(C)OC3CC=C(C)C)[C@@H]2OC)cc1 (stereo partly shown) [Ex. 7, 6-O-(4-allyloxyaniline)acetyl fumagillol] | 21 (≈ 44.5 nM) | –
10 | CO[C@@H]1[C@H](OC(=O)CNc2ccc(OCCOC(C)=O)cc2)CC[C@]2(CO2)[C@H]1[C@@]1(C)OC1CC=C(C)C (stereo partly shown) [Ex. 8, 6-O-(4-(2-acetoxyethoxy)aniline)acetyl fumagillol] | 42 (≈ 81.1 nM) | –
11 | COc1ccc(NCC(=O)O[C@@H]2CC[C@]3(CO3)[C@@H]([C@@]3(C)OC3CC=C(C)C)[C@@H]2OC)cc1C#N (stereo partly shown) [Ex. 9, 6-O-(3-cyano-4-methoxyaniline)acetyl fumagillol] | 0.63 (≈ 1.34 nM) | –
12 | COc1ccc(NCC(=O)O[C@@H]2CC[C@]3(CO3)[C@@H]([C@@]3(C)OC3CC=C(C)C)[C@@H]2OC)cc1CN(C)C (stereo partly shown) [Ex. 10, 6-O-(3-(dimethylaminomethyl)-4-methoxyaniline)acetyl fumagillol] | 0.06 (≈ 0.119 nM) | –
13 | CO[C@@H]1[C@H](OC(=O)CNc2ccc(OCC(C)C)cc2)CC[C@]2(CO2)[C@H]1[C@@]1(C)OC1CC=C(C)C (stereo partly shown) [Ex. 11] | 0.08 (≈ 0.164 nM) | –
14 | COc1ccc(NCC(=O)O[C@@H]2CC[C@]3(CO3)[C@@H]([C@@]3(C)OC3CC=C(C)C)[C@@H]2OC)cc1OC(C)C (stereo partly shown) [Ex. 12, 6-O-(3-isopropoxy-4-methoxyaniline)acetyl fumagillol] | 0.07 (≈ 0.139 nM) | –
15 | COc1c(C(C)C)cc(NCC(=O)O[C@@H]2CC[C@]3(CO3)[C@@H]([C@@]3(C)OC3CC=C(C)C)[C@@H]2OC)cc1C(C)C (stereo partly shown) [Ex. 14, 6-O-(3,5-diisopropyl-4-methoxyaniline)acetyl fumagillol] | 14 (≈ 26.4 nM) | –
16 | COc1c(C)cc(NCC(=O)O[C@@H]2CC[C@]3(CO3)[C@@H]([C@@]3(C)OC3CC=C(C)C)[C@@H]2OC)cc1C (stereo partly shown) [Ex. 15, 6-O-(3,5-dimethyl-4-methoxyaniline)acetyl fumagillol] | 0.06 (≈ 0.127 nM) | –
17 | CCOc1cc(C)c(NCC(=O)O[C@@H]2CC[C@]3(CO3)[C@@H]([C@@]3(C)OC3CC=C(C)C)[C@@H]2OC)cc1C(C)C (stereo partly shown) [Ex. 16, 6-O-(3-isopropyl-4-ethoxy-6-methylaniline)acetyl fumagillol] | 0.17 (≈ 0.33 nM) | –
18 | CCCOc1ccc(NCC(=O)O[C@@H]2CC[C@]3(CO3)[C@@H]([C@@]3(C)OC3CC=C(C)C)[C@@H]2OC)cc1 (stereo partly shown) [Ex. 17, 6-O-(4-propyloxyaniline)acetyl fumagillol] | 0.61 (≈ 1.29 nM) | –
19 | CO[C@@H]1[C@H](OC(=O)CNc2ccccc2)CC[C@]2(CO2)[C@H]1[C@@]1(C)OC1CC=C(C)C (stereo partly shown) [Ex. 18, 6-O-(aniline)acetyl fumagillol] | – | IC50: 17 ng/mL (≈ 40.9 nM)
20 | CO[C@@H]1[C@H](OC(=O)CNc2ccc(Cl)cc2)CC[C@]2(CO2)[C@H]1[C@@]1(C)O[C@@H]1CC=C(C)C [Ex. 19, 6-O-(4-chloroaniline)acetyl fumagillol] | 174 (≈ 387 nM) | –

Row | SMILES | IC50 (HUVEC) [ng/mL] | other results
21 | CO[C@@H]1[C@H](OC(=O)CNc2ccc(N(C)C)cc2)CC[C@]2(CO2)[C@H]1[C@@]1(C)OC1CC=C(C)C (stereo partly shown) [Ex. 20, 6-O-(4-dimethylaminoaniline)acetyl fumagillol] | – | IC50: 162 ng/mL (≈ 353 nM)
22 | CO[C@@H]1[C@H](OC(=O)CNc2ccc(O)cc2)CC[C@]2(CO2)[C@H]1[C@@]1(C)OC1CC=C(C)C (stereo partly shown) [Ex. 21, 6-O-(4-hydroxyaniline)acetyl fumagillol] | 185 (≈ 429 nM) | –
23 | CO[C@@H]1[C@H](OC(=O)CNc2ccc(N)cc2)CC[C@]2(CO2)[C@H]1[C@@]1(C)OC1CC=C(C)C (stereo partly shown) [Ex. 22, 6-O-(4-aminoaniline)acetyl fumagillol] | 179 (≈ 416 nM) | –
24 | CO[C@@H]1[C@H](OC(=O)CNc2ccc3c(c2)OCO3)CC[C@]2(CO2)[C@H]1[C@@]1(C)OC1CC=C(C)C (stereo partly shown) [Ex. 23, 6-O-(3,4-methylenedioxyaniline)acetyl fumagillol] | 0.24 (≈ 0.522 nM) | –
25 | CO[C@@H]1[C@H](OC(=O)CNc2ccc([N+](=O)[O-])cc2)CC[C@]2(CO2)[C@H]1[C@@]1(C)OC1CC=C(C)C (stereo partly shown) [Ex. 24, 6-O-(4-nitroaniline)acetyl fumagillol] | 181 (≈ 393 nM) | –
26 | COc1ccc(NCC(=O)O[C@@H]2CC[C@]3(CO3)[C@@H]([C@@]3(C)OC3CC=C(C)C)[C@@H]2OC)c(OC)c1OC (stereo partly shown) [Ex. 25] | 0.31 (≈ 0.613 nM) | –
27 | COc1cc(NCC(=O)O[C@@H]2CC[C@]3(CO3)[C@@H]([C@@]3(C)OC3CC=C(C)C)[C@@H]2OC)cc(O)c1OC (stereo partly shown) [Ex. 27, 6-O-(3,4-dimethoxy-5-hydroxyaniline)acetyl fumagillol] | 88 (≈ 179 nM) | –
28 | CNCCOc1ccc(NCC(=O)O[C@@H]2CC[C@]3(CO3)[C@@H]([C@@]3(C)OC3CC=C(C)C)[C@@H]2OC)cc1 (stereo partly shown) [Ex. 30, 6-O-(4-ethylaminoethoxyaniline)acetyl fumagillol] | 0.09 (≈ 0.184 nM) | –
29 | CO[C@@H]1[C@H](OC(=O)CNc2ccc(C(F)(F)F)cc2)CC[C@]2(CO2)[C@H]1[C@@]1(C)OC1CC=C(C)C (stereo partly shown) [Ex. 32, 6-O-(4-trifluoromethylaniline)acetyl fumagillol] | 128 (≈ 265 nM) | –
30 | CO[C@@H]1[C@H](OC(=O)CNc2ccc(OC(C)=O)cc2)CC[C@]2(CO2)[C@H]1[C@@]1(C)OC1CC=C(C)C (stereo partly shown) [Ex. 33, 6-O-(4-acetoxyaniline)acetyl fumagillol] | 109 (≈ 230 nM) | –
31 | CO[C@@H]1[C@H](OC(=O)CNc2ccc(C#N)cc2)CC[C@]2(CO2)[C@H]1[C@@]1(C)OC1CC=C(C)C (stereo partly shown) [Ex. 34, 6-O-(4-cyanoaniline)acetyl fumagillol] | 98 (≈ 222 nM) | –
32 | CO[C@@H]1[C@H](OC(=O)CNc2ccc(OCCO)cc2)CC[C@]2(CO2)[C@H]1[C@@]1(C)OC1CC=C(C)C (stereo partly shown) [Ex. 35, 6-O-(4-hydroxyethoxyaniline)acetyl fumagillol] | 116 (≈ 244 nM) | –
33 | COc1ccc(NCC(=O)O[C@@H]2CC[C@]3(CO3)[C@@H]([C@@]3(C)OC3CC=C(C)C)[C@@H]2OC)cn1 (stereo partly shown) [Ex. 36, 6-O-(5-amino-2-methoxypyridine)acetyl fumagillol] | 0.021 (≈ 0.047 nM) | –
34 | COc1cnc(NCC(=O)O[C@@H]2CC[C@]3(CO3)[C@@H]([C@@]3(C)OC3CC=C(C)C)[C@@H]2OC)nc1 (stereo partly shown) [Ex. 37, 6-O-(5-methoxypyrimidine-2-amino)acetyl fumagillol] | – | IC50: 0.017 ng/mL (≈ 0.038 nM)
35 | COc1ccc(NCC(=O)O[C@@H]2CC[C@]3(CO3)[C@@H]([C@@]3(C)OC3CC=C(C)C)[C@@H]2OC)nn1 (stereo partly shown) [Ex. 38, 6-O-(3-methoxy-6-aminopyridazine)acetyl fumagillol] | 0.019 (≈ 0.0425 nM) | –
36 | CCNCC(=O)O[C@@H]1CC[C@]2(CO2)[C@@H]([C@@]2(C)OC2CC=C(C)C)[C@@H]1OC (stereo partly shown) [Ex. 41, 6-O-(ethylamino)acetyl fumagillol] | 20 (≈ 54.4 nM) | –
37 | CO[C@@H]1[C@H](OC(=O)CNC(C)C)CC[C@]2(CO2)[C@H]1[C@@]1(C)OC1CC=C(C)C (stereo partly shown) [Ex. 42, 6-O-(isopropylamino)acetyl fumagillol] | 12 (≈ 31.5 nM) | –
38 | CCCNCC(=O)O[C@@H]1CC[C@]2(CO2)[C@@H]([C@@]2(C)OC2CC=C(C)C)[C@@H]1OC (stereo partly shown) [Ex. 43, 6-O-(propylamino)acetyl fumagillol] | 2400 (≈ 6290 nM) | –
39 | CCCCNCC(=O)O[C@@H]1CC[C@]2(CO2)[C@@H]([C@@]2(C)OC2CC=C(C)C)[C@@H]1OC (stereo partly shown) [Ex. 44, 6-O-(1-butylamino)acetyl fumagillol] | 3200 (≈ 8090 nM) | –
